# Assay results: US9657351B2, “MRNA-based gene expression for personalizing patient cancer therapy with an MDM2 antagonist” (Hoffmann-La Roche Inc., priority 2013, dated 2017)
# Legend:
# Assay in all cases: COMPOUND A In Vitro Assay
# Assay type in all cases: cell-based
# [1] = system: PC-6; details: Homo sapiens, Lung, TP53 Wild type
# Summary of the method: (§1)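 For this panel of human cancer lines, COMPOUND A was applied in high-throughput screening assays and responses were converted to IC50. A line was considered sensitive when its IC50 was no more than 1, and resistant when it reached 10 or above.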
# [2] = system: HCC38; details: Homo sapiens, Breast, mammary gland, TP53 Mutant
# Summary of the method: as §1
# [3] = system: Ramos; details: Homo sapiens, Lymphocyte B, TP53 Wild type
# Summary of the method: as §1
# [4] = system: NCI-H1395; details: Homo sapiens, Lung, TP53 Wild type
# Summary of the method: as §1
# [5] = system: Daoy; details: Homo sapiens, Brain, cerebellum, TP53 Mutant
# Summary of the method: as §1
# [6] = system: LP-1; details: Homo sapiens, Lymphocyte, peripheral blood, TP53 Mutant
# Summary of the method: as §1
# [7] = system: MDA-MB-468; details: Homo sapiens, Breast, mammary gland, TP53 Mutant
# Summary of the method: as §1
# [8] = system: DU-4475; details: Homo sapiens, Breast, mammary gland, TP53 Wild type
# Summary of the method: as §1
# [9] = system: HL-60; details: Homo sapiens, Blood, TP53 Mutant
# Summary of the method: as §1
# [10] = system: KMS-12-PE; details: Homo sapiens, Plasma, TP53 Mutant
# Summary of the method: as §1
# [11] = system: WERI-Rb-1; details: Homo sapiens
# Summary of the method: as §1
# [12] = system: BT-474; details: Homo sapiens, Breast, mammary gland, TP53 Mutant
# Summary of the method: as §1
# [13] = system: A-673; details: Homo sapiens, A673, Muscle, TP53 Mutant
# Summary of the method: as §1
# [14] = system: NCI-H146; details: Homo sapiens, Lung, TP53 Mutant
# Summary of the method: as §1
# [15] = system: NCI-H1155; details: Homo sapiens, Lung, TP53 Mutant
# Summary of the method: as §1
# [16] = system: NCI-H187; details: Homo sapiens, Lung, TP53 Mutant
# Summary of the method: as §1
# [17] = system: MOLM-13; details: Homo sapiens
# Summary of the method: as §1
# [18] = system: HPAF-II; details: Homo sapiens, Pancreas, TP53 Mutant
# Summary of the method: as §1
# [19] = system: NCI-H2029; details: Homo sapiens, Lung, TP53 Mutant
# Summary of the method: as §1
# [20] = system: NCI-H250; details: Homo sapiens, Lung, TP53 NA
# Summary of the method: as §1
# [21] = system: NCI-H69; details: Homo sapiens, Lung, TP53 Mutant
# Summary of the method: as §1
# [22] = system: HT-1197; details: Homo sapiens
# Summary of the method: as §1
# [23] = system: SCC-15; details: Homo sapiens, Tongue, TP53 Mutant
# Summary of the method: as §1
# [24] = system: NCI-H1781; details: Homo sapiens, Lung, TP53 Mutant
# Summary of the method: as §1
# [25] = system: LS 174T; details: Homo sapiens, LS174T
# Summary of the method: as §1
# [26] = system: NCI-H1792; details: Homo sapiens, Lung, TP53 Mutant
# Summary of the method: as §1
# [27] = system: PC-13; details: Homo sapiens, Lung, TP53 Mutant
# Summary of the method: as §1
# [28] = system: SW480; details: Homo sapiens, Intestine, large, colon, TP53 Mutant
# Summary of the method: as §1
# [29] = system: NCI-H1650; details: Homo sapiens, Lung, TP53 Mutant
# Summary of the method: as §1
# [30] = system: SK-N-AS; details: Homo sapiens, Brain, TP53 Mutant
# Summary of the method: as §1
# [31] = system: NCI-H508; details: Homo sapiens, Intestine, large, caecum, TP53 Mutant
# Summary of the method: as §1
# [32] = system: HCC1806; details: Homo sapiens, Breast, mammary gland, TP53 Mutant
# Summary of the method: as §1
# [33] = system: SK-HEP-1; details: Homo sapiens
# Summary of the method: as §1
# [34] = system: MCF10DCIS•com; details: Homo sapiens, Breast, TP53 Wild type
# Summary of the method: as §1
# [35] = system: AN3 CA; details: Homo sapiens, Uterus, endometrium, TP53 Mutant
# Summary of the method: as §1
# [36] = system: NCI-H2030; details: Homo sapiens, Lung, TP53 Mutant
# Summary of the method: as §1
# [37] = system: NCI-H358; details: Homo sapiens, Lung, bronchi, TP53 Mutant
# Summary of the method: as §1
smiles,measurement,setting,value
CCOc1cc(C(C)(C)C)ccc1C1=N[C@@](C)(c2ccc(Cl)cc2)[C@@](C)(c2ccc(Cl)cc2)N1C(=O)N1CCN(CCCS(C)(=O)=O)CC1 [COMPOUND A],IC50,[1],8.2 µM
same,IC50,[2],12 µM
same,IC50,[3],8.8 µM
same,IC50,[4],1.3 µM
same,IC50,[5],9.7 µM
same,IC50,[6],4.4 µM
same,IC50,[7],10 µM
same,IC50,[8],2.1 µM
same,IC50,[9],7 µM
same,IC50,[10],5.3 µM
same,IC50,"[11]; WERI-Rb-1, Eye, retina, TP53 Wild type",0.67 µM
same,IC50,[11]; WERI-Rb-1 cells,0.7 µM
same,IC50,[12],19 µM
same,IC50,[13],18 µM
same,IC50,[14],8.3 µM
same,IC50,[15],22 µM
same,IC50,[16],15 µM
same,IC50,"[17]; MOLM-13, MOLM-13, Blood, TP53 Wild type",0.19 µM
same,IC50,"[17]; MOLM-13, MOLM-13 cells",0.2 µM
same,IC50,[18],10 µM
same,IC50,[19],5.8 µM
same,IC50,[20],12 µM
same,IC50,[21],15 µM
same,IC50,"[22]; HT1197, HT-1197, Urinary, bladder, TP53 Wild type",0.19 µM
same,IC50,"[22]; HT1197, HT-1197 cells",0.2 µM
same,IC50,[23],20 µM
same,IC50,[24],8.8 µM
same,IC50,[25]; LS 174T cells,0.6 µM
same,IC50,"[25]; LS 174T, Intestine, large, colon, TP53 Wild type",0.59 µM
same,IC50,[26],7 µM
same,IC50,[27],14 µM
same,IC50,[28],12 µM
same,IC50,[29],10 µM
same,IC50,[30],13 µM
same,IC50,[31],1.2 µM
same,IC50,[32],11 µM
same,IC50,"[33]; SK-HEP1, SK-HEP-1, Liver, TP53 Wild type",0.22 µM
same,IC50,"[33]; SK-HEP1, SK-HEP-1 cells",0.2 µM
same,IC50,[34],1.4 µM
same,IC50,[35],18 µM
same,IC50,[36],9.2 µM
same,IC50,[37],8.1 µM
